# Data: PubChem BioAssay AID1645862 (Buhrlage Lab, Dana-Farber Cancer Institute and Novartis …, 2021)
# pIC50: −log10 of the molar value. Calls of active or inactive are those of the source. No rule for the calls is given here.
# Molecular target: Ubiquitin carboxyl-terminal hydrolase 8 (Homo sapiens) (UniProt P40818)
# Assay: Ubiquitin-specific protease 8 inhibitors, concentration-effect, biochemical, validation of initial actives (AID 1645862);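 also: potency reflects inhibition of USP8 cleavage of a ubiquitin rhodamine substrate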
# Conditions: recombinant USP8 deubiquitinase activity assay
# Ubiquitin carboxyl-terminal hydrolase 8 (Homo sapiens), sequence (P40818 whole entry, looked up): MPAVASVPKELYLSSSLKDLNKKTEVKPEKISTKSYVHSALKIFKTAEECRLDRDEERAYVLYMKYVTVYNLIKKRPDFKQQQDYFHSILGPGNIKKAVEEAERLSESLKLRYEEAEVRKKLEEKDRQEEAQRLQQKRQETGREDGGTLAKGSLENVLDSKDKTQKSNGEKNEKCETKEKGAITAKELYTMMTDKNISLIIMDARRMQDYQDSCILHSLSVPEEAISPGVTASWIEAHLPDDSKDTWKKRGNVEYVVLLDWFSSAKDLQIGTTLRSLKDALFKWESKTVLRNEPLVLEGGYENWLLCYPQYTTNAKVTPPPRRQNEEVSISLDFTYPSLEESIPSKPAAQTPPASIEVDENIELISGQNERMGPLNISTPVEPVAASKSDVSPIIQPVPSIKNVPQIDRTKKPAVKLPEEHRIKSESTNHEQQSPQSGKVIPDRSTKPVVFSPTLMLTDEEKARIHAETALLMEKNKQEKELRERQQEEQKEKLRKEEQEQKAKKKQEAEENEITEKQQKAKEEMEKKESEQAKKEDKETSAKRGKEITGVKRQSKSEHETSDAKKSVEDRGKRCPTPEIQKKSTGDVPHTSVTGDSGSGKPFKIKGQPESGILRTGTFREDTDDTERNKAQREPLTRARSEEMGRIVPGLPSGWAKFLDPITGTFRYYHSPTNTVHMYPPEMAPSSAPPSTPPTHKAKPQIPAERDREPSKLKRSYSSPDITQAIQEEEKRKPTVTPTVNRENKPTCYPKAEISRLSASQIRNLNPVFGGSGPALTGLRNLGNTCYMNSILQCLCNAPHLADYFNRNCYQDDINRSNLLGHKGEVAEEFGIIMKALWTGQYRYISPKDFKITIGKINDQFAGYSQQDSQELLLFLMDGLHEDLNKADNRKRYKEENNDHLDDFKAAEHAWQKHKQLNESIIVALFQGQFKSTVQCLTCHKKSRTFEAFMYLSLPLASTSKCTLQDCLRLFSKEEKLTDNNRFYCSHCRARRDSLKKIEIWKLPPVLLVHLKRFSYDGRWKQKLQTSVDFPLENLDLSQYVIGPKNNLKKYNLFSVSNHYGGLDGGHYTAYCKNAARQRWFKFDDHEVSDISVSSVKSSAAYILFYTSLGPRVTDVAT
Compound,IC50,pIC50
Cc1ccc(C(=O)Nc2ccc3c(c2)Sc2ncccc2C(=O)N3C(C)C)cc1C,> 40 µM (inactive),
Cc1ccc(Nc2nc(O)c(CC(=O)Nc3ccccc3C)s2)cc1C,> 40 µM (inactive),
COc1ccc(-c2noc(CC(=O)Nc3cccc(OC)c3)n2)cc1,> 40 µM (inactive),
CN(C(=O)C1(c2ccccc2)CC1)c1nc2c(s1)CCc1occc1-2,> 40 µM (inactive),
O=C(Nc1ccc(Cn2cnc(-c3nc(-c4ccccc4)no3)c2)cc1)c1ccccc1F,> 40 µM (inactive),
CN1CC(c2ncn[nH]2)c2cc(C(=O)NCc3cccc(F)c3)ccc21 (stereo not given),> 40 µM (inactive),
Cn1c(SCC(=O)c2ccc(F)cc2)nnc1-c1cc2ccccc2o1,> 40 µM (inactive),
NS(=O)(=O)c1cccc(NC(=O)/C=C/c2cn(-c3ccccc3)nc2-c2cccc([N+](=O)[O-])c2)c1,> 40 µM (inactive),
O=C(Cn1c(-c2ccccc2)ncc(C(=O)NC2CC2)c1=O)Nc1ccccc1,> 40 µM (inactive),
COc1ccc(-c2cc(-c3ccc(F)cc3)[nH]c(=O)c2C#N)cc1,> 40 µM (inactive),
COc1ccc(-c2nc(-c3nnn(Cc4ccc(F)cc4)c3C)no2)c(OC)c1,> 40 µM (inactive),
O=C(CCCn1c(=O)c2cc(Cl)ccc2n(CC(=O)Nc2cccc(F)c2)c1=O)NCc1ccco1,> 40 µM (inactive),
Cc1ccc2[nH]c3c(=O)n(Cc4ccc(N(C)C)cc4)cnc3c2c1,,4.51
CC(C)n1cc(CN2CCC(C(=O)Nc3cccc(-c4cccc(Cl)c4)c3)CC2)cn1,> 40 µM (inactive),
CC(C)CC(NC(=O)c1ccc(Cl)cc1Cl)c1nc2ccccc2[nH]1 (stereo not given),> 40 µM (inactive),
CCCCCCCc1cc(OC(=O)c2c(CCCCCCC)cc(O)cc2O[C@@H]2O[C@H](CO)[C@@H](O)[C@H](O)[C@H]2O)cc(O)c1C(=O)O,,5.09
CCOc1ccc(-c2nnc(-c3cnc4onc(C5CCCC5)c4c3)o2)cc1,> 40 µM (inactive),
COc1ccc(S(=O)(=O)N2CCc3ccccc32)cc1C(=O)Nc1ccc2c(c1)NC(=O)C(C)O2 (stereo not given),> 40 µM (inactive),
COc1ccc(NC(=O)CNC(=O)c2ccc3nc(-n4cccc4)sc3c2)cc1,> 40 µM (inactive),
O=C(c1cnc2[nH][nH]c(=O)c2c1)c1cc(Cl)cc(Cl)c1O,,4.97
COc1cccc(Cn2cnc3c(NS(=O)(=O)c4ccc(Cl)cc4)c(C)c(C)cc32)c1,> 40 µM (inactive),
Cc1cccc(OCC2=NN3C(=N)/C(=C\c4cc(C)n(-c5cccc(F)c5)c4C)C(=O)N=C3S2)c1,> 40 µM (inactive),

Compound,IC50,pIC50
CCOc1ccc2[nH]c3c(=O)n(CCc4ccc(OC)cc4)cnc3c2c1,> 40 µM (inactive),
O=C(Cn1cc(C(=O)C(F)(F)F)c2cc(Br)ccc21)N1CCc2ccccc21,> 40 µM (inactive),
O=C(COc1nc2ccccc2nc1N1CCOCC1)NC(c1ccccc1)c1ccccc1,> 40 µM (inactive),
Cc1ccc(C2=Nc3ccccc3N(CC(=O)Nc3cccc(C)c3C)C(=O)C2)cc1C,> 40 µM (inactive),
COCCCn1c(C(=O)NCc2ccccc2)cc2c(=O)n3ccccc3nc21,> 40 µM (inactive),
CC(C)Cc1nc2sc3c(SCC(=O)N4CCC(C)CC4)ncnc3c2c2c1COC(C)(C)C2,> 40 µM (inactive),
CCc1cccc(C)c1NC(=O)Cn1nc2ccc(C(=O)NCc3ccccc3)cn2c1=O,> 40 µM (inactive),
CCc1ccc(OCCn2c(CCNC(=O)C3CCCCC3)nc3ccccc32)cc1,> 40 µM (inactive),
COc1cccc(-n2cnc3cc(C(=O)NCCc4ccccc4)ccc3c2=O)c1,> 40 µM (inactive),
COc1ccc(Cl)cc1NC(=O)Cn1c(=O)n(CCCC(=O)NCc2ccc(C)cc2)c(=O)c2sccc21,> 40 µM (inactive),
COc1ccc(OC)c(-c2cn3ccn(-c4ccc(F)c(Cl)c4)c(=O)c3n2)c1,,4.69
COc1ccccc1CNC(=O)Cn1cnc2c(-c3ccccc3)csc2c1=O,> 40 µM (inactive),
COc1cc(OC)c(NC(=O)Cn2c(=O)n(Cc3ccccc3Cl)c(=O)c3cc(OC)c(OC)cc32)cc1Cl,> 40 µM (inactive),
Cc1noc(/C=C/Nc2cc(Cl)cc(Cl)c2)c1[N+](=O)[O-],> 40 µM (inactive),
Cc1nc(-c2noc(-c3cccc(F)c3)n2)cn1CC(=O)Nc1ccccc1,,4.41
Cc1cccn2c(=O)c3cc(C#N)c(=O)n(-c4cccc(C(F)(F)F)c4)c3nc12,> 40 µM (inactive),
O=C(NCc1ccc(Cl)cc1)c1cc2c(s1)-c1ccccc1OC2,> 40 µM (inactive),
COc1ccc(Cl)cc1NC(=O)Cn1c(=O)n(CCC(=O)NC2CCCC2)c(=O)c2ccccc21,> 40 µM (inactive),
CCc1cc(=O)oc2c(C)c(OCC(=O)NCc3ccccn3)ccc12,> 40 µM (inactive),
O=C(Nc1ccc(F)cc1F)c1cc(-c2ccccn2)n[nH]1,> 40 µM (inactive),
O=C(Cn1c(=O)c2ccccc2c2ccccc21)Nc1ccc2c(c1)OCO2,> 40 µM (inactive),
CCOc1ccccc1-c1cc(NC(=O)c2cc3ccc4cccnc4c3[nH]2)on1,> 40 µM (inactive),

Compound,IC50,pIC50
CCOc1ccc(S(=O)(=O)Nc2ccc[nH]c2=O)cc1,> 40 µM (inactive),
CCn1c(CNC(=O)c2cccc(C)c2)nnc1SCC(=O)N1CCc2ccccc21,> 40 µM (inactive),
O=C(CSc1oc(-c2ccc(F)cc2)nc1S(=O)(=O)c1ccc(F)cc1)Nc1ccc(F)cc1,> 40 µM (inactive),
Cc1cc(C)cc(NC(=O)C2CC(=O)Nc3nc4ccccc4n32)c1 (stereo not given),> 40 µM (inactive),
CC(=O)c1ccc(NC(=O)CCc2c(C)c3c(C)nn(-c4ccccc4)c3n(C)c2=O)cc1,> 40 µM (inactive),
O=C(NCc1ccc2c(c1)OCO2)c1cc2c(s1)CCC2,,4.79
Cc1ccc(-c2n[nH]n3c2nc(=O)c2ccc(C(=O)NC4CCCCC4)cc23)cc1,> 40 µM (inactive),
O=C(Cn1nnc2ccccc21)Nc1nc(-c2ccc3c(c2)CCN3C(=O)c2ccccc2F)cs1,> 40 µM (inactive),
O=C(CSc1nnc2ccc3ccccc3n12)c1ccc(Cl)cc1,> 40 µM (inactive),
CC(C)=CCc1c(O)cc2c(c1C)OC(=O)c1c(C)c(Cl)c(O)c(CO)c1O2,> 40 µM (inactive),
CCc1ccc([C@@H]2c3c(C)nn(C)c3NC(=O)[C@H]2NC(=O)c2ccc(OC)c(OC)c2)cc1,> 40 µM (inactive),
COC(=O)c1ccccc1NC(=O)CSc1nnc(CNc2ccc(F)cc2)n1CC1CCCO1 (stereo not given),> 40 µM (inactive),
Cc1ccc(NC(=O)Cn2cnc3c(c(C)c(C)n3-c3ccccc3)c2=O)c(C)c1,> 40 µM (inactive),
CC(=O)c1cc(-c2ccc(F)cc2)n(CC(=O)Nc2cccc(C)c2C)c1C,> 40 µM (inactive),
O=C(Cn1c(=O)n(Cc2ccc(C(=O)NC3CCCC3)cc2)c(=O)c2ccccc21)c1ccc(Cl)c(Cl)c1,> 40 µM (inactive),
O=C(NCCc1ccccc1)c1ccc2c(=O)n(Cc3ccco3)c(=O)n(Cc3cccc([N+](=O)[O-])c3)c2c1,,4.81
COc1ccc(Nc2nnc(Cc3ccc(Cl)cc3)c(=O)[nH]2)cc1,,4.54
Cc1nc(-c2ccc(Cl)cc2)oc1C(=O)Nc1ccc(Cl)cc1,> 40 µM (inactive),
COc1ccc(Cl)cc1NC(=O)c1cc(-c2ccccn2)n[nH]1,,4.98
Cc1sc2ccn(C)c(=O)c2c1C(=O)NC1CCCC1,,5.66
O=C(Nc1ccc2c(c1)OCCO2)C1CCC(Cn2cnc3ccccc3c2=O)CC1 (stereo not given),> 40 µM (inactive),
